Key:
[1] = Foaming capability (Reverse Stirring Method); assay type: physicochemical; conditions: for Foaming capability (Foam volume): reverse stirring, 40 °C, 1,000 rpm, 30 sec (reversed at every 5 sec), measured after 10 sec
Method: * The conditions of the reverse stirring
Rotation speed: 1,000 rpm
Stirring time: 30 sec. (reversed at every 5 sec.)
Measurement: performed after the test sample was left for 10 sec.

Krafft point = assay type: physicochemical
[2] = comparison with sodium dodecyl phosphate, in words

Foaming capability (Foam volume) [1] | Krafft point (Krafft point) | Foaming capability compared with sodium dodecyl phosphate [1, 2] | Krafft point compared with sodium dodecyl phosphate (Krafft point; [2]) | SMILES
260 mL | 32 °C | – | – | CCCCCCCCCCCCOP(=O)(O)O [1-sodium dodecyl phosphate]
250 mL | < 0 °C | almost the same foaming capability | extremely lower Krafft point | CCCCCCCCCCCCOP(=O)(O)OCC(O)CN(C)CC(=O)O (centres unmarked) [Example 1, sodium dodecyl 2-hydroxy-3-N-carboxymethyl-N-methylammoniopropyl phosphate]

SMILES | Foaming capability (Foam volume) [1] | Krafft point (Krafft point) | Foaming capability compared with sodium dodecyl phosphate [1, 2] | Krafft point compared with sodium dodecyl phosphate (Krafft point; [2])
CCCCCCCCCCCCOP(=O)([O-])OCC(O)CO.[Na+] (centres unmarked) [sodium dodecyl 2,3-dihydroxypropyl phosphate] | 240 mL | < 0 °C | – | –

— patent US4985412A, “Phosphoric acid ester, process for preparing the same, and detergent composition containing the same” (Kao Corporation, priority 1987, dated 1991)
